Measured values reported in ChEMBL document CHEMBL1156589, “2-Arylpyrimidines: novel CRF-1 receptor antagonists” (Bioorg Med Chem Lett, 2008).
pIC50, pKi: −log10 of the molar value. Values after ≈ are worked out from the molar mass of the structure shown.

Experiments:
[1] = Tmax in Sprague-Dawley rat at 20 mg/kg, po and 3 mg/kg, iv; type: ADME, organism-based; conditions: in vivo
[2] = target: T1, Corticotropin-releasing factor receptor 1 (Homo sapiens, UniProt P34998); assay: Antagonist activity at CRF1 receptor expressed in mouse AtT20 cells assessed as inhibition of sauvagine-stimulated cAMP accumulation; type: functional, cell-based
T1 sequence (P34998 whole entry): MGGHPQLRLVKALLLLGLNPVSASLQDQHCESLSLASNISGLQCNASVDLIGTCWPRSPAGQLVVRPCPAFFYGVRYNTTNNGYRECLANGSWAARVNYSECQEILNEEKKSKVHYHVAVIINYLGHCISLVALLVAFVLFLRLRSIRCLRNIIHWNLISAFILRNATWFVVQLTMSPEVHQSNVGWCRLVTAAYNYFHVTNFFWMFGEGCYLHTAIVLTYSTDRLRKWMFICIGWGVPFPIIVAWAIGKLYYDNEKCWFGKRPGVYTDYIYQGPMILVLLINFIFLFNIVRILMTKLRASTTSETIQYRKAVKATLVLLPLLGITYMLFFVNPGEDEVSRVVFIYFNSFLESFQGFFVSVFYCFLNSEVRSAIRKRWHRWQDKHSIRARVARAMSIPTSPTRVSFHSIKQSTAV

[3] = Half life in Sprague-Dawley rat at 20 mg/kg, po and 3 mg/kg, iv; type: ADME, organism-based; conditions: in vivo
[4] = Cmax in Sprague-Dawley rat at 20 mg/kg, po and 3 mg/kg, iv; type: ADME, organism-based; conditions: in vivo
[5] = Volume of distribution in Sprague-Dawley rat at 20 mg/kg, po and 3 mg/kg, iv; type: ADME, organism-based; conditions: in vivo
[6] = Solubility in 0.1 N hydrochloric acid; type: physicochemical
[7] = Oral bioavailability in Sprague-Dawley rat at 20 mg/kg; type: ADME, organism-based; conditions: in vivo
[8] = Clearance in Sprague-Dawley rat at 20 mg/kg, po and 3 mg/kg, iv; type: ADME, organism-based; conditions: in vivo
[9] = target: T1, Corticotropin-releasing factor receptor 1; assay: biochemical; type: cell-based, IMR-32
Description: Displacement of [125I]sauvagine from human CRF1 receptor expressed in IMR32 cells

pKi [9]	SMILES	further results
	CCCN(CCC)c1c(C)nc(-c2c(C)cc(C)cc2OC)c2ccccc12	Tmax [1]: 0.7 h; pIC50 [2]: 7.92; half-life [3]: 5.4 h; Cmax [4]: 387 ng/mL; Vd [5]: 13 L/kg; solubility [6]: < 0.5 µg/mL; bioavailability [7]: 5%; clearance [8]: 14.5 mL/min/kg
7.03	CCC(CC)Nc1c(C)nc(-c2c(C)cc(C)cc2OC)nc1OC	
5.94	CCCN(CCC)c1c(CC(C)O)nc(-c2c(C)cc(C)cc2OC)nc1OC (stereo not given)	
< 5.00	CCCN(CCC)c1c(C)nc(-c2ccc(Cl)cc2Cl)nc1OC	
< 5.30	CCCN(CCC)c1c(C)nc(-c2c(C)cc(C)cc2OC)nc1OC(C)C	
5.79	CCCN(CCC)c1c(C)nc(-c2c(C)cc(C)cc2OC)nc1OCCO	
7.12	CCCc1nc(-c2c(C)cc(C)cc2OC)nc(OC)c1N(CCC)CCC	
7.82	CCCN(CCC)c1c(C)nc(-c2c(C)cc(C)cc2OC)nc1OC	
< 5.00	CCCNc1c(C)nc(-c2c(C)cc(C)cc2OC)nc1OC	
< 5.00	COc1cc(C)cc(C)c1-c1nc(C)c(NCC(C)(C)C)c(OC)n1	
8.22	CCCN(CCC)c1c(C)nc(-c2c(OC)cc(C(F)(F)F)cc2C(F)(F)F)nc1OC	
8.10	CCC(CC)Oc1c(C)nc(-c2c(C)cc(C)cc2OC)nc1OC	pIC50 [2]: 7.72
8.05	CCC(CC)Oc1c(C)nc(-c2c(OC)cc(Cl)cc2OC)nc1OC	Tmax [1]: 1.8 h; pIC50 [2]: 8.15; half-life [3]: 8.3 h; Cmax [4]: 194 ng/mL; Vd [5]: 14 L/kg; solubility [6]: 28 µg/mL (≈ 73.5 µM); bioavailability [7]: 6%; clearance [8]: 13.6 mL/min/kg
9.70	CCC(CC)c1cc(C)nn2c(-c3sc(N4CCOCC4)nc3Cl)c(C)nc12	
7.80	CCCN(CCC)c1c(C)nc(-c2c(C)cc(C)cc2OC)nc1OCC	
7.48	CCCN(CCC)c1c(C)nc(-c2c(C)cc(C)cc2OC)nc1Cl	
6.25	CCCN(CCC)c1cnc(-c2c(C)cc(C)cc2OC)nc1C	
8.05	CCC(CC)Oc1c(C)nc(-c2c(OC)cc(C(F)F)cc2OC)nc1OC	
6.56	CCCN(CCC)c1c(C)nc(-c2c(OC)cccc2OC)nc1OC	
6.22	CCCN(CCC)c1c(CC(C)(C)O)nc(-c2c(C)cc(C)cc2OC)nc1OC	
7.66	CCCN(CCC)c1c(CC)nc(-c2c(C)cc(C)cc2OC)nc1OC	
8.70	CCCN(CCC)c1c(C)nc(-c2c(OC)cc(Cl)cc2OC)nc1OC	Tmax [1]: 0.6 h; pIC50 [2]: 9.00; half-life [3]: 2.8 h; Cmax [4]: 210 ng/mL; Vd [5]: 12 L/kg; solubility [6]: 27 µg/mL (≈ 68.5 µM); bioavailability [7]: 2%; clearance [8]: 21 mL/min/kg
6.29	CCCN(CCC)c1c(C)nc(-c2ccc(OC)cc2OC)nc1OC	
6.45	CCCN(CCC)c1c(C)nc(-c2c(C)cc(C)cc2C)nc1OC	
7.28	CCCOc1nc(-c2c(C)cc(C)cc2OC)nc(C)c1N(CCC)CCC	
8.52	CCCCN(CC)c1nc(C)nc2c1c(C)cn2-c1c(C)cc(C)cc1C [CP-154526]	
